Test results published in paper PMC7004140, “In vitro hepatotoxicity of Petasites hybridus extract (Ze 339) depends on the concentration, the cytochrome activity of the cell system, and the species used” (Phytotherapy Research, 2019).

Experiments:
[1] = test system: S9 fractions from rat, dog and human; test: Metabolism by liver S9 fractions from different species; format: in vitro ADME, rat (Sprague Dawley), dog (beagle); conditions: 20 μM, 60 min incubation
From the text: (§1) The metabolism of petasin, isopetasin, and neopetasin was investigated using three different S9 fractions originating from three different species (isolated from rat, dog, and human liver homogenates containing cytochrome P450 isoforms) and isolated cytochromes of two different species (human and rat; rat analogues of the respective human cytochromes were used). For the expression of the different cytochromes, a baculovirus expression system was used according to supplier's manual. The S9 fractions or respectively single P450 cytochromes were used to mimic the liver metabolism by in vitro incubation.
(§2) The assay was carried out in triplicate in 1.5 ml glass vials with a final concentration of 20 μM of petasin, isopetasin, and neopetasin. The incubation was performed in a 37°C warm water bath. S9 fractions were thawed slowly on ice. Four different approaches were pursued by testing: (a) petasin, neopetasin, and isopetasin before (0 min) and after 60 min incubations with S9 fraction; (b) petasin, neopetasin, and isopetasin without S9 fraction after 60 min incubation; (c) vehicle as negative controls; and (d) cofactors of S9 fraction after 60‐min incubation.
(§3) A mixture of NADPH regeneration systems A (20‐fold) and B (100‐fold), phosphate buffer, and H2O was added, preincubated at 37°C, and shaken gently for 5 min. Afterwards, the recommended amount between 10 and 40 pmol/ml of enzyme or enzyme mixture was added according to manufacturer's instruction and incubated for further 60 min at 37°C and gently shaken. Afterwards, the reactions were stopped by addition of acetonitrile (400 μl). For the control sample, acetonitrile was added at 0 min incubation. The samples were centrifuged for 3 min at 10,000 × g. The supernatant was transferred to high‐performance liquid chromatography vials and analyzed by ultra‐performance liquid chromatography mass spectrometry (UPLC/MS). The UPLC analysis was performed with an UPLC Acquity H Class from Waters (Waters Corporation, Switzerland) including a quaternary high‐pressure gradient pump, an automatic sample injector, and a column thermostat. […]

HepG2 cells = test: WST-1 metabolic activity (cytotoxicity) in HepG2 cells; format: cell-based, human; conditions: HepG2, 250 μM (highest concentration), 4 hr
Protocol: HepG2 and H‐4‐II‐E cells were differentiated for 24 hr. HepaRG cells were directly seeded in precoated 96‐well microtiter plates and were incubated in William's medium with general purpose supplements according to manufacturer's manual until adherence. All cells were treated with Ze 339 (up to 100 μg/ml) or petasin, isopetasin, neopetasin, petasol, isopetasol, petasin mixture, fatty acid mixture, and reconstituted extracts (up to 250 μM) for 4 hr.
In the three cell lines, cytotoxicity was defined as a decrease in metabolic activity of ≥20% in the WST‐1 assay. At the end of the experiment, 10 μl WST‐1 reagent was added to each well. Plates were then incubated for 2 hr to allow for the reduction of WST‐1 reagent. Absorbance was measured using a microplate absorbance reader (Infinite M 200, Tecan Trading Ltd., Switzerland) at 450 nm, reference wavelength of 620 nm. Due to some matrix effect, the lowest concentration (0.02 μg/ml for Ze 339 and 3.9 μM for single constituents and mixtures) of each substance tested was defined as 100% metabolic activity. Results were expressed as percentage of the control metabolic activity, and data were presented as mean values ± SEM (n = 3–6).
Concentration‐response analysis was done using the sigmoidal Hill equation: E(t) = E0 − Emax × C(t)^N/(IC50 ^N + C(t)^N), where E is the effect at time t, E0 the effect at baseline (time = 0), IC50 the concentration yielding 50% of the maximal effect (Emax), and N denotes the sigmoidicity coefficient (Origin 2017 Software). For statistical analysis, analysis of variance with Dunnett's multicomparison test was used to correct for multiplicity of testing (IBM SPSS Statistics software, version 25, IBM Corp., USA). The level of significance was ^* p < .05, ^** p < .01 and ^*** p < .001; NS = no significance.

CYP3A4 (human) = target: T1, CYP3A4 (human) (Homo sapiens, UniProt P08684); test: Metabolism by isolated human CYP3A4; format: in vitro ADME; conditions: petasins 20 μM, 60 min
T1 construct: purchased BD Gentest (Switzerland); host or cells: baculovirus expression system
From the text: as §1, §2, §3

CYP2D2 (rats) = target: T2, CYP2D2 (rats) (Rattus norvegicus, UniProt P10634); test: Metabolism by isolated rat CYP2D2; format: in vitro ADME; conditions: petasins 20 μM, 60 min
T2 construct: purchased BD Gentest (Switzerland); host or cells: baculovirus expression system
T2 sequence (P10634 1-500): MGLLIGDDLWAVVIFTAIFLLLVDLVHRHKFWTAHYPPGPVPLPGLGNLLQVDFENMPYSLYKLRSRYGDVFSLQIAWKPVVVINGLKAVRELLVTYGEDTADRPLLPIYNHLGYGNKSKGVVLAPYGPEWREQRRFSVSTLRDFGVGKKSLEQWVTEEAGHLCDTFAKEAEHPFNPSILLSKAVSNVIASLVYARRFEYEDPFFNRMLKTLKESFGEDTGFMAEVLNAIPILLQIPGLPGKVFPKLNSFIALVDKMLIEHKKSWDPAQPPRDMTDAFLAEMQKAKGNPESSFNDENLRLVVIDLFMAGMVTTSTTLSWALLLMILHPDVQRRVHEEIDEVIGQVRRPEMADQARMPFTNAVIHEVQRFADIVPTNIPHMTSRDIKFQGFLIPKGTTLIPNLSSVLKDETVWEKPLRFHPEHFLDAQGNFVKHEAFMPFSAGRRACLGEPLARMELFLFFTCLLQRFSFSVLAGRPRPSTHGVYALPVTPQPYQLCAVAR
From the text: as §1, §2, §3

T1 sequence (P08684 whole entry): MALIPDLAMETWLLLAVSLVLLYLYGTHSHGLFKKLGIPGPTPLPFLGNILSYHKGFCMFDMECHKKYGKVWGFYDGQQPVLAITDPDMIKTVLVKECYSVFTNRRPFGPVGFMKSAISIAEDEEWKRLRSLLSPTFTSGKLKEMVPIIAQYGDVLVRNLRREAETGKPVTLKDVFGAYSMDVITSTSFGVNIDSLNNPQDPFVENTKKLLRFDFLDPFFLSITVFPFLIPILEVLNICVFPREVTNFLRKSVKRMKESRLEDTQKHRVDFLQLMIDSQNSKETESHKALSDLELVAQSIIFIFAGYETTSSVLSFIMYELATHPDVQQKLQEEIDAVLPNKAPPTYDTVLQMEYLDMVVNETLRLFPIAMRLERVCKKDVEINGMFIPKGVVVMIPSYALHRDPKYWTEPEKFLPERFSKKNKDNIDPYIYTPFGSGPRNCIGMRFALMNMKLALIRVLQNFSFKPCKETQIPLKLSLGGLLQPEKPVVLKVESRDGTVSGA

Row | Structure (SMILES) | rank order of extent of metabolism by S9 fractions of different species [1] | metabolic activity compared with the reference concentration (3.9 μM) (HepG2 cells) [%] | extent of metabolism by CYP3A4 (human) (CYP3A4 (human)) [%] | extent of metabolism by CYP2D2 (rat) (CYP2D2 (rats)) [%]
1 | C=C(C)[C@H]1C[C@@]2(C)C(=CC1=O)CC[C@@H](OC(=O)/C(C)=C\C)[C@@H]2C [neopetasin] | rat>dog>human | 66.8 | 86 | 36
2 | C/C=C(/C)C(=O)O[C@@H]1CCC2=CC(=O)C(=C(C)C)C[C@]2(C)[C@H]1C [isopetasin] | rat>dog>human | 65.6 | 87 | 7
3 | C=C(C)[C@@H]1C[C@@]2(C)C(=CC1=O)CC[C@@H](OC(=O)/C(C)=C\C)[C@@H]2C [petasin] | rat>dog>human | 60.9 | 34 | 37
